Where a SMILES comes first, the peptide text is derived from it. Bridges are numbered along the chain shown (N, C = ends). [ ]: non-standard residue; d: D form. hArg = N=C(N)NCCCC[C@H](N)C(=O)O; Mpa = O=C(O)CCS
Legend:
[1] = system: Hepatotoxicity;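 as to HepSE Combined Scores: combined hepatic side effect score as listed in the training data of the Drug Induced Liver Injury Prediction System (DILIps)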;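 as to HepSE cholecystitis: Cholecystitis-related hepatic side effect score drawn from the DILIps (drug-induced liver injury prediction) training data set; call rule not given here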;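 as to HepSE elevated liver function tests: hepatic side effect score for raised liver function tests, as recorded in the DILIps training set used for predicting drug-induced liver injury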;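 as to HepSE hepatitis: Hepatitis-related hepatic side effect score taken from the training data of DILIps, a prediction system for drug-induced liver injury; call rule not given here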;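 as to HepSE jaundice: Jaundice-related hepatic side-effect score drawn from the training data of the DILIps (drug-induced liver injury prediction system); call rule not given here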;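 as to HepSE liver fatty: hepatic side effect score for fatty liver, taken from the DILIps training set for predicting drug-induced liver injury; call rule not given here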
[2] = system: Hepatotoxicity; remark: listed apart in the source;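 as to HepSE Combined Scores: combined hepatic side effect score as listed in the training data of the Drug Induced Liver Injury Prediction System (DILIps)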;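 as to HepSE cholecystitis: Cholecystitis-related hepatic side effect score drawn from the DILIps (drug-induced liver injury prediction) training data set; call rule not given here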;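 as to HepSE elevated liver function tests: hepatic side effect score for raised liver function tests, as recorded in the DILIps training set used for predicting drug-induced liver injury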;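 as to HepSE hepatitis: Hepatitis-related hepatic side effect score taken from the training data of DILIps, a prediction system for drug-induced liver injury; call rule not given here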;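 as to HepSE jaundice: Jaundice-related hepatic side-effect score drawn from the training data of the DILIps (drug-induced liver injury prediction system); call rule not given here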;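 as to HepSE liver fatty: hepatic side effect score for fatty liver, taken from the DILIps training set for predicting drug-induced liver injury; call rule not given here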
[3] = system: Hepatotoxicity; remark: listed apart in the source;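 as to HepSE Combined Scores: combined hepatic side effect score as listed in the training data of the Drug Induced Liver Injury Prediction System (DILIps)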;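 as to HepSE cholecystitis: Cholecystitis-related hepatic side effect score drawn from the DILIps (drug-induced liver injury prediction) training data set; call rule not given here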;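 as to HepSE elevated liver function tests: hepatic side effect score for raised liver function tests, as recorded in the DILIps training set used for predicting drug-induced liver injury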;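 as to HepSE hepatitis: Hepatitis-related hepatic side effect score taken from the training data of DILIps, a prediction system for drug-induced liver injury; call rule not given here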;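 as to HepSE jaundice: Jaundice-related hepatic side-effect score drawn from the training data of the DILIps (drug-induced liver injury prediction system); call rule not given here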;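 as to HepSE liver fatty: hepatic side effect score for fatty liver, taken from the DILIps training set for predicting drug-induced liver injury; call rule not given here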
[4] = system: Hepatotoxicity; remark: listed apart in the source;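 as to HepSE Combined Scores: combined hepatic side effect score as listed in the training data of the Drug Induced Liver Injury Prediction System (DILIps)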;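 as to HepSE elevated liver function tests: hepatic side effect score for raised liver function tests, as recorded in the DILIps training set used for predicting drug-induced liver injury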;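 as to HepSE hepatitis: Hepatitis-related hepatic side effect score taken from the training data of DILIps, a prediction system for drug-induced liver injury; call rule not given here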;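 as to HepSE jaundice: Jaundice-related hepatic side-effect score drawn from the training data of the DILIps (drug-induced liver injury prediction system); call rule not given here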;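 as to HepSE liver fatty: hepatic side effect score for fatty liver, taken from the DILIps training set for predicting drug-induced liver injury; call rule not given here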
[5] = system: Hepatotoxicity; remark: listed apart in the source
[6] = system: Hepatotoxicity; remark: listed apart in the source
[7] = system: Hepatotoxicity; remark: listed apart in the source
[8] = system: Hepatotoxicity; remark: listed apart in the source
[9] = system: Hepatotoxicity; remark: listed apart in the source
[10] = system: Hepatotoxicity; remark: listed apart in the source
[11] = system: Hepatotoxicity; remark: listed apart in the source
[12] = system: Hepatotoxicity; remark: listed apart in the source
[13] = system: Hepatotoxicity; remark: listed apart in the source
[14] = system: Hepatotoxicity; remark: listed apart in the source

CNC[C@H](O)c1ccc(O)c(O)c1 [EPINEPHRINE]
HepSE_liver fatty ([1]; Liver): 0
HepSE_elevated liver function tests ([2]; Liver): 0
HepSE_Combined Scores ([3]; Liver): 0
HepSE_jaundice ([4]; Liver): 0
HepSE_hepatitis ([5]; Liver): 0
HepSE_hepatic necrosis ([6]; Liver): 0
HepSE_cholecystitis ([7]; Liver): 0
HepSE_cirrhosis ([8]; Liver): 0
HepSE_liver disease ([9]; Liver): 0
HepSE_liver function tests abnormal ([10]; Liver): 0
HepSE_hepatic failure ([11]; Liver): 0
HepSE_bilirubinemia ([12]; Liver): 0
HepSE_cholelithiasis ([13]; Liver): 0
HepSE_hepatomegaly ([14]; Liver): 0

COC(=O)[C@@H]1CC2=CC(=O)CC[C@]2(C)[C@@]23O[C@@H]2C[C@@]2(C)[C@@H](CC[C@@]24CCC(=O)O4)[C@H]13 [EPLERENONE]
HepSE_liver fatty [1]: 0
HepSE_elevated liver function tests [2]: 0
HepSE_Combined Scores [3]: 1
HepSE_jaundice [4]: 0
HepSE_hepatitis [5]: 0
HepSE_hepatic necrosis [6]: 0
HepSE_cholecystitis [7]: 0
HepSE_cirrhosis [8]: 0
HepSE_liver disease [9]: 0
HepSE_liver function tests abnormal [10]: 0
HepSE_hepatic failure [11]: 1
HepSE_bilirubinemia [12]: 0
HepSE_cholelithiasis [13]: 0
HepSE_hepatomegaly [14]: 0

CCCCC[C@H](O)/C=C/[C@@H]1[C@H]2C/C(=C/CCCC(=O)O)O[C@H]2C[C@H]1O [EPOPROSTENOL]
HepSE_liver fatty [1]: 0
HepSE_elevated liver function tests [2]: 0
HepSE_Combined Scores [3]: 1
HepSE_jaundice [4]: 0
HepSE_hepatitis [5]: 0
HepSE_hepatic necrosis [6]: 0
HepSE_cholecystitis [7]: 0
HepSE_cirrhosis [8]: 0
HepSE_liver disease [9]: 0
HepSE_liver function tests abnormal [10]: 0
HepSE_hepatic failure [11]: 1
HepSE_bilirubinemia [12]: 0
HepSE_cholelithiasis [13]: 0
HepSE_hepatomegaly [14]: 0

CCCCc1ncc(/C=C(\Cc2cccs2)C(=O)O)n1Cc1ccc(C(=O)O)cc1 [EPROSARTAN]
HepSE_liver fatty [1]: 0
HepSE_elevated liver function tests [2]: 0
HepSE_Combined Scores [3]: 0
HepSE_jaundice [4]: 0
HepSE_hepatitis [5]: 0
HepSE_hepatic necrosis [6]: 0
HepSE_cholecystitis [7]: 0
HepSE_cirrhosis [8]: 0
HepSE_liver disease [9]: 0
HepSE_liver function tests abnormal [10]: 0
HepSE_hepatic failure [11]: 0
HepSE_bilirubinemia [12]: 0
HepSE_cholelithiasis [13]: 0
HepSE_hepatomegaly [14]: 0

N=C(N)NCCCC[C@@H]1NC(=O)CCSSC[C@@H](C(N)=O)NC(=O)[C@@H]2CCCN2C(=O)[C@H](Cc2c[nH]c3ccccc23)NC(=O)[C@H](CC(=O)O)NC(=O)CNC1=O [EPTIFIBATIDE] ([Mpa][hArg]GDWPC-NH2; disulfide 1-7)
HepSE_liver fatty [1]: 0
HepSE_elevated liver function tests [2]: 0
HepSE_Combined Scores [3]: 0
HepSE_jaundice [4]: 0
HepSE_hepatitis [5]: 0
HepSE_hepatic necrosis [6]: 0
HepSE_cholecystitis [7]: 0
HepSE_cirrhosis [8]: 0
HepSE_liver disease [9]: 0
HepSE_liver function tests abnormal [10]: 0
HepSE_hepatic failure [11]: 0
HepSE_bilirubinemia [12]: 0
HepSE_cholelithiasis [13]: 0
HepSE_hepatomegaly [14]: 0

CN1C[C@H](C(=O)N[C@]2(C)O[C@@]3(O)[C@@H]4CCCN4C(=O)[C@H](Cc4ccccc4)N3C2=O)C=C2c3cccc4[nH]cc(c34)C[C@H]21 [ERGOTAMINE]
HepSE_liver fatty [1]: 0
HepSE_elevated liver function tests [2]: 0
HepSE_Combined Scores [3]: 0
HepSE_jaundice [4]: 0
HepSE_hepatitis [5]: 0
HepSE_hepatic necrosis [6]: 0
HepSE_cholecystitis [7]: 0
HepSE_cirrhosis [8]: 0
HepSE_liver disease [9]: 0
HepSE_liver function tests abnormal [10]: 0
HepSE_hepatic failure [11]: 0
HepSE_bilirubinemia [12]: 0
HepSE_cholelithiasis [13]: 0
HepSE_hepatomegaly [14]: 0

C#Cc1cccc(Nc2ncnc3cc(OCCOC)c(OCCOC)cc23)c1 [ERLOTINIB]
HepSE_liver fatty [1]: 0
HepSE_elevated liver function tests [2]: 0
HepSE_Combined Scores [3]: 2
HepSE_jaundice [4]: 0
HepSE_hepatitis [5]: 0
HepSE_hepatic necrosis [6]: 0
HepSE_cholecystitis [7]: 0
HepSE_cirrhosis [8]: 0
HepSE_liver disease [9]: 1
HepSE_liver function tests abnormal [10]: 0
HepSE_hepatic failure [11]: 1
HepSE_bilirubinemia [12]: 0
HepSE_cholelithiasis [13]: 0
HepSE_hepatomegaly [14]: 0

CC[C@H]1OC(=O)[C@H](C)[C@@H](O[C@H]2C[C@@](C)(OC)[C@@H](O)[C@H](C)O2)[C@H](C)[C@@H](O[C@@H]2O[C@H](C)C[C@H](N(C)C)[C@H]2O)[C@](C)(O)C[C@@H](C)C(=O)[C@H](C)[C@@H](O)[C@]1(C)O [ERYTHROMYCIN]
HepSE_liver fatty [1]: 0
HepSE_elevated liver function tests [2]: 0
HepSE_Combined Scores [3]: 1
HepSE_jaundice [4]: 0
HepSE_hepatitis [5]: 1
HepSE_hepatic necrosis [6]: 0
HepSE_cholecystitis [7]: 0
HepSE_cirrhosis [8]: 0
HepSE_liver disease [9]: 0
HepSE_liver function tests abnormal [10]: 0
HepSE_hepatic failure [11]: 0
HepSE_bilirubinemia [12]: 0
HepSE_cholelithiasis [13]: 0
HepSE_hepatomegaly [14]: 0

COC(=O)CCc1ccc(OCC(O)CNC(C)C)cc1 (stereo not drawn) [ESMOLOL]
HepSE_liver fatty [1]: 0
HepSE_elevated liver function tests [2]: 0
HepSE_Combined Scores [3]: 0
HepSE_jaundice [4]: 0
HepSE_hepatitis [5]: 0
HepSE_hepatic necrosis [6]: 0
HepSE_cholecystitis [7]: 0
HepSE_cirrhosis [8]: 0
HepSE_liver disease [9]: 0
HepSE_liver function tests abnormal [10]: 0
HepSE_hepatic failure [11]: 0
HepSE_bilirubinemia [12]: 0
HepSE_cholelithiasis [13]: 0
HepSE_hepatomegaly [14]: 0

Clc1ccc2c(c1)C(c1ccccc1)=NCc1nncn1-2 [ESTAZOLAM]
HepSE_liver fatty [1]: 0
HepSE_elevated liver function tests [2]: 0
HepSE_Combined Scores [3]: 0
HepSE_jaundice [4]: 0
HepSE_hepatitis [5]: 0
HepSE_hepatic necrosis [6]: 0
HepSE_cholecystitis [7]: 0
HepSE_cirrhosis [8]: 0
HepSE_liver disease [9]: 0
HepSE_liver function tests abnormal [10]: 0
HepSE_hepatic failure [11]: 0
HepSE_bilirubinemia [12]: 0
HepSE_cholelithiasis [13]: 0
HepSE_hepatomegaly [14]: 0

C[C@]12CC[C@@H]3c4ccc(O)cc4CC[C@H]3[C@@H]1CC[C@@H]2O [ESTRADIOL]
HepSE_liver fatty [1]: 0
HepSE_elevated liver function tests [2]: 1
HepSE_Combined Scores [3]: 3
HepSE_jaundice [4]: 1
HepSE_hepatitis [5]: 1
HepSE_hepatic necrosis [6]: 0
HepSE_cholecystitis [7]: 0
HepSE_cirrhosis [8]: 0
HepSE_liver disease [9]: 0
HepSE_liver function tests abnormal [10]: 0
HepSE_hepatic failure [11]: 0
HepSE_bilirubinemia [12]: 0
HepSE_cholelithiasis [13]: 0
HepSE_hepatomegaly [14]: 0

C[C@]12CC[C@@H]3c4ccc(OC(=O)N(CCCl)CCCl)cc4CC[C@H]3[C@@H]1CC[C@@H]2O [ESTRAMUSTINE]
HepSE_liver fatty [1]: 0
HepSE_elevated liver function tests [2]: 0
HepSE_Combined Scores [3]: 0
HepSE_jaundice [4]: 0
HepSE_hepatitis [5]: 0
HepSE_hepatic necrosis [6]: 0
HepSE_cholecystitis [7]: 0
HepSE_cirrhosis [8]: 0
HepSE_liver disease [9]: 0
HepSE_liver function tests abnormal [10]: 0
HepSE_hepatic failure [11]: 0
HepSE_bilirubinemia [12]: 0
HepSE_cholelithiasis [13]: 0
HepSE_hepatomegaly [14]: 0
